Results taken from publication PMC3092291 (2011).

Biological target: T1, IspH (LytB) (Aquifex aeolicus, UniProt O67625)
T1 sequence (O67625 1-289): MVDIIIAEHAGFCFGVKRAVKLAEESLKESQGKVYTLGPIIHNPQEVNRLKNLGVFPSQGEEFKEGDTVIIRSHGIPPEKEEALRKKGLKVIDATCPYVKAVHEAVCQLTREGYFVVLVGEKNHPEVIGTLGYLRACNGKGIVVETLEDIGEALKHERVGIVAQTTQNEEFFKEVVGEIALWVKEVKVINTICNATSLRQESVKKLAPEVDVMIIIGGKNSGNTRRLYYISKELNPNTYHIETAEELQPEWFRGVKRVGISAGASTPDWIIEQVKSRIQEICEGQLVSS
Test: HYSCORE/CW-EPR with […] and […]-labeled IspH
Assay type: biochemical

BPH-293 [compound 7] showed an IC50 of 38 µM.
